Experimental data taken from patent US11479525B2, “Propenylamines and methods of making and using same” (3M INNOVATIVE PROPERTIES COMPANY, priority 2016, dated 2022).

Test: Atmospheric lifetime from the rate of reaction with hydroxyl radicals, relative to reference compounds (FTIR gas cell)
Format: physicochemical
Conditions: gas phase reaction with hydroxyl radical relative to chloromethane/ethane; for Atmospheric Lifetime, E-isomer: E-isomer of the 1-propenylamine; for Atmospheric Lifetime, Z-isomer: Z-isomer of the 1-propenylamine
Protocol: The atmospheric lifetimes of 1-propenylamines were determined from their rate of reaction with hydroxyl radicals. The pseudo-first order rates for the reaction of the gaseous 1-propenylamines with hydroxyl radical were measured in a series of experiments relative to reference compounds such as chloromethane and ethane. The measurements were performed in a 5.7 L, heated FTIR gas cell equipped with a polished semiconductor-grade quartz window. An Oriel Instruments UV Lamp, Model 66921 equipped with a 480 W mercury-xenon bulb was used to generate hydroxyl radicals by photolyzing ozone in the presence of water vapor. The concentrations of the 1-propenylamine and the reference compound were measured as a function of reaction time using an I-Series FTIR from Midac Corporation. The atmospheric lifetimes were calculated from the reaction rates for the 1-propenylamines relative to the reference compounds and the reported lifetime of the reference compounds as shown below:
[formula] where τx is the atmospheric lifetime of the 1-propenylamine, τr is the atmospheric lifetime of the reference compound, and kx and kr are the rate constants for the reaction of hydroxyl radical with the isomeric 1-propenylamines and the reference compound, respectively.

SMILES	Atmospheric Lifetime, E-isomer	Atmospheric Lifetime, Z-isomer
FC(=C(F)C(F)(F)F)N(C(F)(F)F)C(F)(F)F [(CF3)2N—CF═CFCF3, 1,2,3,3,3-pentafluoro-N,N-bis(trifluoromethyl)prop-1-en-1-amine]	0.71 Yrs	1.9 Yrs
FC(=C(F)C(F)(F)F)N(C(F)(F)F)C(F)(F)C(F)(F)F [C2F5(CF3)N—CF═CFCF3]	1.4 Yrs	3.5 Yrs
